Laboratory results as given in patent US20250295763A1 (priority 2024, published 2025).
Where two headings read alike, the source gives them in different places. Peptide text beside a SMILES is read from it. * marks the point of attachment. X1 = CCCCCCCCCCCCCCCC(=O)OCC(C*)OC(=O)CCCCCCCCCCCCCCC

Key:
[1] = for Body weight change (%) Post-dose 1 D 1 / Average body weight change (%) Post-dose 1 D 1: i.m. Days 0 and 14, 0.3 mcg H3N2; for Body weight change (%) Post-dose 1 D 2 / Body weight change (%) Post-dose 1 D 14 / Body weight change (%) Post-dose 2 D 15 / Body weight change (%) Post-dose 2 D 16 / Body weight change (%) Post-dose 2 D 21 / Average body weight change (%) Post-dose 1 D 2 / Average body weight change (%) Post-dose 1 D 14 / Average body weight change (%) Post-dose 2 D 15 / Average body weight change (%) Post-dose 2 D 16 / Average body weight change (%) Post-dose 2 D 21: same groups
H3N2 = type: in vivo, C57BL/6 mice
[2] = background statement; cited from earlier work
[3] = Table 5, 100 mcg Synsap 5, 10 mcg Pam3CSK4
[4] = Table 6, after the boost (day 28), 100 mcg Synsap 5, 10 mcg Pam3CSK4, 0.3 mcg H3N2
[5] = Table 3, 5/50 mcg TLR4 agonist/Synsap, alone: 5 mcg 3D-6A-PHAD, 5 mcg EcML, 10 mcg TLR4-1, 50 mcg Synsap, 5/5 mcg AS01B
[6] = Table 4, after the boost (day 28), 5 mcg TLR4 agonist / 50 mcg Synsap, 0.3 mcg H3N2
[7] = Table 7, 10 mcg R848 with 2, 10, 50 or 100 mcg Synsap 14
[8] = Table 8, after the boost (day 28), 10 mcg R848 with 2, 10, 50 or 100 mcg Synsap 14, 0.3 mcg H3N2

## CC1O[C@@H](OC(=O)[C@]23CCC(C)(C)CC2C2=CCC4C5(C)CC[C@H](O[C@@H]6O[C@H](C(=O)NCCCCCCCCc7ccc(N8CCOCC8)cc7)[C@@H](O)[C@H](O)[C@H]6O)[C@](C)(C=O)[C@@H]5CC[C@]4(C)C2(C)CC3O)C(O[C@@H]2OC(C)[C@H](O[C@@H]3OC[C@@H](O)[C@H](O)C3O)[C@H](O)C2O)[C@@H](O)[C@H]1O (some centres unmarked) [Synsap 5]
[1]; [3]
  Body weight change (%) Post-dose 1 D 1: −3.166%
[1]; Table 5
  Body weight change (%) Post-dose 1 D 2: 1.523%
  Body weight change (%) Post-dose 1 D 14: 4.909%
  Body weight change (%) Post-dose 2 D 15: −0.174%
  Body weight change (%) Post-dose 2 D 16: 3.144%
  Body weight change (%) Post-dose 2 D 21: 7.000%
H3N2; [4]
  HI titers GMT mean: 2048
H3N2; Table 6, day 28
  HI Titers Fold (compare to CpG1018): 0.9
  HI Titers Fold (compare to SynSap 17): 1.0
  HI titers Fold (compare to H3N2): 13

## COc1ccc(CCCCCCCCNC(=O)[C@H]2O[C@@H](O[C@H]3CCC4(C)C5CC=C6C7CC(C)(C)CC[C@]7(C(=O)O[C@@H]7OC(C)[C@H](O)[C@H](O)C7O[C@@H]7OC(C)[C@H](O[C@@H]8OC[C@@H](O)[C@H](O)C8O)[C@H](O)C7O)C(O)CC6(C)[C@@]5(C)CC[C@H]4[C@@]3(C)C=O)[C@H](O)[C@@H](O)[C@@H]2O)cc1 (some centres unmarked) [Synsap 1]
[1]; [5]
  Average body weight change (%) Post-dose 1 D 1: −1.096%
[1]; Table 3
  Average body weight change (%) Post-dose 1 D 2: −1.736%
  Average body weight change (%) Post-dose 1 D 14: 3.753%
  Average body weight change (%) Post-dose 2 D 15: 2.417%
  Average body weight change (%) Post-dose 2 D 16: −1.393%
  Average body weight change (%) Post-dose 2 D 21: 6.148%
H3N2; [6]
  HI titers GMT mean: 320
H3N2; Table 4, day 28
  HI titers Fold (compare to AS01B): 0.25
  HI titers Fold (compare to H3N2): 2

## CC1O[C@@H](OC(=O)[C@]23CCC(C)(C)CC2C2=CCC4C5(C)CC[C@H](O[C@@H]6O[C@H](C(=O)NCCCCCCCCc7ccc(Oc8ccccc8)cc7)[C@@H](O)[C@H](O)[C@H]6O)[C@](C)(C=O)[C@@H]5CC[C@]4(C)C2(C)CC3O)C(O[C@@H]2OC(C)[C@H](O[C@@H]3OC[C@@H](O)[C@H](O)C3O)[C@H](O[C@@H]3OC(CO)[C@@H](O)[C@H](O)C3O)C2O)[C@@H](O)[C@H]1O (some centres unmarked) [Synsap 17]
[1]; Table 9, 10 mcg CpG 1018 with 10, 50, 75 or 100 mcg Synsap 17, or 50 mcg CpG 1018 with 10 mcg Synsap 17
  Body weight change (%) Post-dose 1 D 1: −1.769%
[1]; Table 9
  Body weight change (%) Post-dose 1 D 2: −0.704%
  Body weight change (%) Post-dose 1 D 14: 3.586%
  Body weight change (%) Post-dose 2 D 15: −0.277%
  Body weight change (%) Post-dose 2 D 16: −0.654%
  Body weight change (%) Post-dose 2 D 21: 2.921%
H3N2; Table 10, after the boost (day 28), CpG 1018 / Synsap 17 ratios, 0.3 mcg H3N2
  HI titer GMT mean: 183.8
H3N2; Table 10, day 28
  HI titer Fold (compare to CpG1018): 0.6
  HI titer Fold (compare to H3N2): 1.1
  HI titer Fold (compare to Synsap 17): 1.0

## CC1O[C@@H](OC(=O)[C@]23CCC(C)(C)CC2C2=CCC4C5(C)CC[C@H](O[C@@H]6O[C@H](C(=O)NCCCCCCCCc7ccc(Oc8ccccc8)cc7)[C@@H](O)[C@H](O)[C@H]6O)[C@](C)(C=O)[C@@H]5CC[C@]4(C)C2(C)CC3O)C(O[C@@H]2OC(C)[C@H](O[C@@H]3OC[C@@H](O)[C@H](O)C3O)[C@H](O)C2O)[C@@H](O)[C@H]1O (some centres unmarked) [Synsap 3]
[1]; Table 1, 5 mcg 3D-PHAD with 5, 50, 75 or 100 mcg Synsap 3, Synsap 3 alone 50 mcg
  Average body weight change (%) Post-dose 1 D 1: 2.176%
[1]; Table 1
  Average body weight change (%) Post-dose 1 D 2: 2.174%
  Average body weight change (%) Post-dose 1 D 14: 6.946%
  Average body weight change (%) Post-dose 2 D 15: −0.739%
  Average body weight change (%) Post-dose 2 D 16: 1.208%
  Average body weight change (%) Post-dose 2 D 21: 2.329%
[1]; [5]
  Average body weight change (%) Post-dose 1 D 1: 2.176%
[1]; Table 3
  Average body weight change (%) Post-dose 1 D 2: 2.174%
  Average body weight change (%) Post-dose 1 D 14: 6.946%
  Average body weight change (%) Post-dose 2 D 15: −0.739%
  Average body weight change (%) Post-dose 2 D 16: 1.208%
  Average body weight change (%) Post-dose 2 D 21: 2.329%
H3N2; [6]
  HI titers GMT mean: 192
H3N2; Table 4, day 28
  HI titers Fold (compare to AS01B): 0.15
  HI titers Fold (compare to H3N2): 1.2

## CCC(C)C(CC(O)CC(=O)OC1C(C)OC(OC(=O)C23CCC(C)(C)CC2C2=CCC4C5(C)CCC(OC6OC(C(=O)O)C(O)C(OC7OCC(O)C(O)C7O)C6OC6OC(CO)C(O)C(O)C6O)C(C)(C=O)C5CCC4(C)C2(C)CC3O)C(OC2OC(C)C(OC3OCC(O)C(OC4OCC(O)(CO)C4O)C3O)C(OC3OC(CO)C(O)C(O)C3O)C2O)C1O)OC(=O)CC(O)CC(OC1OC(COC2OC(C)C(O)C(O)C2O)C(O)C1O)C(C)CC (centres unmarked) [QS-17]
[2]
  solubility in water: water-soluble

## CCCCCCCCCCCCCC(=O)O[C@H](CCCCCCCCCCC)CC(=O)NC1C(OC(=O)C[C@@H](CCCCCCCCCCC)OC(=O)CCCCCCCCCCCCC)[C@H](OP(=O)(O)O)C(CO)O[C@H]1OCC1O[C@H](O)C(NC(=O)C[C@@H](CCCCCCCCCCC)OC(=O)CCCCCCCCCCCCC)C(O)[C@@H]1O.N (some centres unmarked) [Synsap 3D-6A-PHAD, reference compound]
[1]; [5]
  Average body weight change (%) Post-dose 1 D 1: −5.362%
[1]; Table 3
  Average body weight change (%) Post-dose 1 D 2: −2.900%
  Average body weight change (%) Post-dose 1 D 14: 6.215%
  Average body weight change (%) Post-dose 2 D 15: −1.147%
  Average body weight change (%) Post-dose 2 D 16: 0.463%
  Average body weight change (%) Post-dose 2 D 21: 2.331%
H3N2; [6]
  HI titers GMT mean: 806.3
H3N2; Table 4, day 28
  HI titers Fold (compare to AS01B): 0.6
  HI titers Fold (compare to H3N2): 5.0

## Poly(I:C) [reference compound]
H3N2; mouse, in vivo
  HI titer Fold (compare to H3N2): 1
  HI titer Fold (compare to SynSap 21): 0.5
  HI titer Fold (compare to TLR3): 0.3299
  HI titer GMT mean: 640

## CCCCCCCCCCCCCC(=O)O[C@H](CCCCCCCCCCC)CC(=O)OC1C(NC(=O)C[C@@H](CCCCCCCCCCC)OC(=O)CCCCCCCCCCC)[C@H](OCC2O[C@H](O)C(NC(=O)C[C@H](O)CCCCCCCCCCC)C(OC(=O)C[C@H](O)CCCCCCCCCCC)[C@@H]2O)OC(CO)[C@H]1OP(=O)(O)O (some centres unmarked) [EcML, reference compound]
[1]; [5]
  Average body weight change (%) Post-dose 1 D 1: −3.607%
[1]; Table 3
  Average body weight change (%) Post-dose 1 D 2: −1.832%
  Average body weight change (%) Post-dose 1 D 14: 7.914%
  Average body weight change (%) Post-dose 2 D 15: −3.002%
  Average body weight change (%) Post-dose 2 D 16: −0.735%
  Average body weight change (%) Post-dose 2 D 21: 1.468%
H3N2; [6]
  HI titers GMT mean: 403.2
H3N2; Table 4, day 28
  HI titers Fold (compare to AS01B): 0.3
  HI titers Fold (compare to H3N2): 2.5

## CC1O[C@@H](OC2[C@H](OC(=O)[C@]34CCC(C)(C)CC3C3=CCC5C6(C)CC[C@H](O[C@@H]7O[C@H](C(=O)NCCCCCCCCc8ccc(Oc9ccc(F)cc9)cc8)[C@@H](O)[C@H](O)[C@H]7O)[C@](C)(C=O)[C@@H]6CC[C@]5(C)C3(C)CC4O)OC[C@H](O)[C@H]2O)C(O)[C@@H](O)[C@H]1O[C@@H]1OC[C@@H](O)[C@H](O)C1O (some centres unmarked) [Synsap 14]
[1]; [7]
  Body weight change (%) Post-dose 1 D 1: −1.769%
[1]; Table 7
  Body weight change (%) Post-dose 1 D 2: −0.704%
  Body weight change (%) Post-dose 1 D 14: 3.586%
  Body weight change (%) Post-dose 2 D 15: −0.277%
  Body weight change (%) Post-dose 2 D 16: −0.654%
  Body weight change (%) Post-dose 2 D 21: 3.064%
H3N2; [8]
  HI titer GMT mean: 192
H3N2; Table 8, day 28
  HI titer Fold (compare to H3N2 alone): 1.2
  HI titer Fold (compare to R848 treated group): 1.0
  HI titer Fold (compare to SynSap 14 treated group): 1.0

## CCC(C)C(CC(O)CC(=O)OC1C(C)OC(OC(=O)C23CCC(C)(C)CC2C2=CCC4C5(C)CCC(OC6OC(C(=O)O)C(O)C(OC7OCC(O)C(O)C7O)C6OC6OC(CO)C(O)C(O)C6O)C(C)(C=O)C5CCC4(C)C2(C)CC3O)C(OC2OC(C)C(OC3OCC(O)C(OC4OCC(O)(CO)C4O)C3O)C(OC3OC(CO)C(O)C(O)C3O)C2O)C1O)OC(=O)CC(O)CC(OC1OC(CO)C(O)C1O)C(C)CC (centres unmarked) [QS-18]
[2]
  solubility in water: water-soluble

## CCOCc1nc2c(N)nc3ccccc3c2n1CC(C)(C)O [Synsap R848, Resiquimod, reference compound]
[1]; [7]
  Body weight change (%) Post-dose 1 D 1: −3.012%
[1]; Table 7
  Body weight change (%) Post-dose 1 D 2: −0.416%
  Body weight change (%) Post-dose 1 D 14: 5.224%
  Body weight change (%) Post-dose 2 D 15: −4.078%
  Body weight change (%) Post-dose 2 D 16: −0.804%
  Body weight change (%) Post-dose 2 D 21: 1.856%
H3N2; [8]
  HI titer GMT mean: 183.8
H3N2; Table 8, day 28
  HI titer Fold (compare to H3N2 alone): 1.1
  HI titer Fold (compare to R848 treated group): 1.0
  HI titer Fold (compare to SynSap 14 treated group): 1.0

## CCCCCCCCCCCCCCCC(=O)OCC(CSC[C@H](N)C(=O)N[C@@H](CO)C(=O)N[C@@H](CCCCN)C(=O)N[C@@H](CCCCN)C(=O)N[C@@H](CCCCN)C(=O)N[C@@H](CCCCN)C(=O)O)OC(=O)CCCCCCCCCCCCCCC (some centres unmarked) [Pam3CSK4, reference compound] (H-C(X1)SKKKK-OH)
[1]; [3]
  Body weight change (%) Post-dose 1 D 1: −0.996%
[1]; Table 5
  Body weight change (%) Post-dose 1 D 2: 2.635%
  Body weight change (%) Post-dose 1 D 14: 6.308%
  Body weight change (%) Post-dose 2 D 15: −0.998%
  Body weight change (%) Post-dose 2 D 16: 0.169%
  Body weight change (%) Post-dose 2 D 21: 4.551%
H3N2; [4]
  HI titers GMT mean: 2176
H3N2; Table 6, day 28
  HI Titers Fold (compare to CpG1018): 1.0
  HI Titers Fold (compare to SynSap 17): 1.1
  HI titers Fold (compare to H3N2): 14
